Measured values: patent US20110152316A1, “3,4-SUBSTITUTED PIPERIDINE DERIVATIVES AS RENIN INHIBITORS” (priority 2008, published 2011)

Legend:
Human recombinant renin = target: T1, Human recombinant renin (Homo sapiens, UniProt P00797); test: Inhibition of human recombinant renin (buffer); format: biochemical; conditions: 50 mM MOPS pH 7.4, 37° C., 3 hours
T1 construct: purchased Proteos
T1 sequence (P00797 67-406): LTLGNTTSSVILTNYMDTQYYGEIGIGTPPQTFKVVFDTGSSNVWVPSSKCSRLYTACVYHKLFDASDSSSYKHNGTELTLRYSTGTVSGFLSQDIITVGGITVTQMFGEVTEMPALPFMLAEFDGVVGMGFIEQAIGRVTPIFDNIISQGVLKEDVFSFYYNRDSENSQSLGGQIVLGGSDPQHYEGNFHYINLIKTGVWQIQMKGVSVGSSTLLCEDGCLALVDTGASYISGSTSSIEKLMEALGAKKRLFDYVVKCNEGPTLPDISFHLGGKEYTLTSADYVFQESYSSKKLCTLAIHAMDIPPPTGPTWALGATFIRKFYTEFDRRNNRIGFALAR
Procedure: Human recombinant renin (Proteos) in 50 mM MOPS pH 7.4, 100 mM NaCl, 0.002% Tween 20 at a final concentration of […] is incubated with inhibitors from a 50 fold concentrated DMSO solution and 6 μM of an internally-quench fluorescent peptide: DNP-Lys-His-Pro-Phe-His-Leu-Val-Ile-His-D,L-Amp (SEQ ID NO: 1); Paschalidou K. et al., Biochem J., 2004, 382, 1031). The reactions take place in a Costar 384 well black plate (#3573) at 37° C. for 3 hours. Fluorescence is measured at times 0 and 3 hours with a SpectraMax Gemini EM reader set at an excitation wavelength of 328 nm and at an emission wavelength of 388 nm. Background fluorescence at t=0 is subtracted from the measurement at t=3 hours. Inhibitory activity of the compounds is expressed as IC 50.

[1] = target: T2, recombinant renin in human plasma (Homo sapiens, UniProt P00797); test: Inhibition of renin in human plasma; format: biochemical; conditions: human EDTA plasma, 37° C., 1 hour
T2 construct: purchased Proteos
T2 sequence (P00797 67-406): T1 sequence (P00797 67-406)
Procedure: Human EDTA-collected plasma is rapidly thawed in warm water and centrifuged at 2900 g for 15 minutes at 4° C. The supernatant is collected and recombinant renin (Proteos) is added at a final concentration of 1 nM. The plasma is transferred to a Costar black 384 well plate (#3573). Renin inhibitors are added from a 17.5 fold concentrated DMSO solution and pre-incubated at 37° C. for 10 minutes. The internally-quench fluorescent peptide QXL520™-Lys-His-Pro-Phe-His-Leu-Val-Ile-His-Lys (5-FAM) (Anaspec), SEQ ID NO: 2, is diluted in 3M Tris pH 7.2, 200 mM EDTA and added to the plasma. The final concentrations are: 6 μM substrate, 342 mM Tris, 23 mM EDTA. The plate is incubated at 37° C. for 1 hour. The plate is read in a SpectraMax Gemini EM reader set at an excitation wavelength of 490 nm and an emission wavelength of 520 nm at times 0 and 1 hour. Background fluorescence at t=0 is subtracted from the measurement at t=1 hour. Inhibitory activity of the compounds is expressed as IC50.

Molecule `COCCCc1cc(CN(C(=O)[C@@H]2CNCC[C@H]2c2cc(=O)n(C)c3cc(Cl)ccc23)C2CC2)cc(OCCOC)c1` (relative stereo) [Example 2, trans-4-(7-Chloro-1-methyl-2-oxo-1,2-dihydro-4-quinolinyl)-N-cyclopropyl-N-({3-{[2-(methyloxy)ethyl]oxy}-5-[3-(methyloxy)propyl]phenyl}methyl)-3-piperidinecarboxamide] has an IC50 (Human recombinant renin) of 2.2 nM and an IC50 [1] of 7.6 nM.

With `COCCCc1cc(CN(C(=O)[C@@H]2CNCC[C@H]2c2cc(=O)n(C)c3ccccc23)C2CC2)cc(OCCOC)c1` (relative stereo) [Example 1, trans-N-Cyclopropyl-4-(1-methyl-2-oxo-1,2-dihydro-4-quinolinyl)-N-({3-{[2-(methyloxy)ethyl]oxy}-5-[3-(methyloxy)propyl]phenyl}methyl)-3-piperidinecarboxamide] the IC50 (Human recombinant renin) was 13 nM and the IC50 [1] was 39 nM.
